Several values for one entry are separate records, joined by “and”; a condition that tells them apart may be missing. Equal values may be shown once. Read-outs that look alike come from different tables or passages of the source.
Columns and labels:
CCRF-CEM cells = assay: cell viability, CTG assay, CCRF-CEM; settings: for cell viability (0 µM = 100): listed as AVX420; for cell viability (Control = 100): VEH
Method: Data are the mean ± stdev of 3 biological replicates. c Viability of healthy T-cells measured by propidium iodide (PI) exclusion. Data are the mean ± stdev of 8 biological replicates for 1–16 µM AVX420, 5 for 32 µM AVX420 and 2 for 0.5 µM Staurosporine (Stau). d Cell viability measured by CTG assay in cells preincubated with 2.5 mM glutathione (GSH) or 2.5 mM N-acetyl cysteine (NAC) for 30 min before addition of 0.5 or 1 µM AVX420, 0.06 µM RSL-3, or 0.06 µM ML-210 for 24 h. Data are the mean ± stdev of 3 biological replicates. P-values were determined by one-way ANOVA with Dunnett’s correction for multiple testing and **** indicates P < 0.0001. e Cell viability measured by CTG assay. CCRF-CEM or Jurkat cells were co-treated with 0.5 µM AVX420 and either arachidonic acid (AA) at concentrations ranging from 1 to 100 µM or a mixture of 9 eicosanoids: 6-keto prostaglandin F1α, Thromboxane B2, prostaglandin F2α, prostaglandin E2, prostaglandin D2, 12(S)-HHTrE, 15(S)-HETE,12(S)-HETE, 5(S)-HETE at a final concentration of 2 ng/mL each (EIC-mix) for 24 h. Data are the mean ± stdev of 3 biological replicates. P-values were determined by two-way ANOVA with Sidak’s correction for multiple comparisons. f Proportion of intracellular ROS-positive cells measured by ROS-red staining and flow cytometry. Cells were treated with indicated concentrations of AVX420 (µM), 1 mM H2O2, 1 µM RSL-3, or 1 µM doxorubicin (dox) for 4 h. Data are the mean ± stdev of 3 biological replicates. g Intracellular ROS measurements in CCRF-CEM cells treated with AVX420 (0.5 µM), AVX002 (8 µM), or AACOCF3 (8 µM) for 4 h.
All cell lines were confirmed to be free of mycoplasma contamination. The cell lines were not authenticated. MV-4-11 were cultured in Iscove’s Modified Dulbecco’s Medium (Sigma, I3390). CCRF-CEM, Jurkat E6.1, and HL-60 cells were cultured in RPMI 1640 Medium RPMI-1640 medium (Sigma, R5886).

PBMCs = assay: viability of PBMCs (CTG and propidium iodide exclusion); type: cell-based, human; settings: for PI Negative (Figure S8b) / PI Positive (Figure S8b): replicates; for PI Negative (Figure S8b) / PI Positive (Figure S8b) / PBMC viability relative to 0 µM = 100 (Figure S8a): listed as AVX420
Method: (§1) Propidium iodide exclusion was used to assess cell death by flow cytometry. After treatment, the cells were washed once with PBS and stained with 1.4 μg/mL propidium iodide (PI) for 5 min before quantification of PI negative and positive cells using a CytoFLEX flow cytometer (California, United States). An example of the gating strategy to assess PI staining can be found in Fig. S8c. […]
(§2) cells. a. CTG assays were used to assess viability of PBMCs isolated from human blood after treatment with vehicle control (DMSO) or AVX420 at the indicated doses for either (i) 24 hours or (ii) 72 hours. Data are the mean ±stdev of 4 or 5 biological replicates respectively. b. The propidium iodide exclusion assay was used to assess vi-ability of ungated PBMCs treated with AVX420 at the indicated doses for 24 hours .
(§3) Data are the mean ±stdev from 8 biological replicates (1-16 µM) and 5 biological rep- […]
(§4) iodide exclusion in CD3+ lymphocytes (T-cells). Cells appearing in the bottom right quadrant are PI-negative (live) T-cells while cells in the top right quadrant are PI-posi- […]
(§5) (1 picture or pasted object on this page, not shown here)

[1] = as above; type: cell-based, human; settings: human, read-out: PBMC viability relative to 0 µM = 100 (Figure S8a)
Method: as §1, §2, §3, §4, §5

CCCCCCCOc1ccc(OCC(=O)c2nc(C(=O)OC)cs2)cc1 [GK420]
cell viability (0 µM = 100) (CCRF-CEM cells; 0.007 µM, 24H): 100
cell viability (0 µM = 100) (CCRF-CEM cells; 0.015 µM, 24H): 90
cell viability (0 µM = 100) (CCRF-CEM cells; 0.015 µM, 72H): 81
cell viability (0 µM = 100) (CCRF-CEM cells; 0.031 µM, 24H): 99
cell viability (0 µM = 100) (CCRF-CEM cells; 0.062 µM, 24H): 103
cell viability (0 µM = 100) (CCRF-CEM cells; 0.062 µM, 48H): 84
cell viability (0 µM = 100) (CCRF-CEM cells; 0.062 µM, 72H): 70
cell viability (0 µM = 100) (CCRF-CEM cells; 0.125 µM, 72H): 45 and 46
cell viability (0 µM = 100) (CCRF-CEM cells; 0.25 µM, 24H): 69 and 65
cell viability (0 µM = 100) (CCRF-CEM cells; 0.25 µM, 48H): 43
cell viability (0 µM = 100) (CCRF-CEM cells; 0.25 µM, 72H): 16 and 24
cell viability (0 µM = 100) (CCRF-CEM cells; 0.5 µM, 24H): 42 and 39
cell viability (0 µM = 100) (CCRF-CEM cells; 0.5 µM, 48H): 19
cell viability (0 µM = 100) (CCRF-CEM cells; 0.5 µM, 72H): 5.44 and 10
cell viability (Control = 100) (CCRF-CEM cells; 0.5 µM, listed as AVX420, 0.5 µM): 56 and 50
cell viability (0 µM = 100) (CCRF-CEM cells; 1 µM, 24H): 23
cell viability (0 µM = 100) (CCRF-CEM cells; 1 µM, 48H): 10
cell viability (0 µM = 100) (CCRF-CEM cells; 1 µM, 72H): 3 and 4.53
cell viability (Control = 100) (CCRF-CEM cells; 1 µM, listed as AVX420, 1 µM): 38
cell viability (0 µM = 100) (CCRF-CEM cells; 2 µM, 24H): 11
cell viability (0 µM = 100) (CCRF-CEM cells; 2 µM, 48H): 3 and 2
cell viability (0 µM = 100) (CCRF-CEM cells; 2 µM, 72H): 1.13
cell viability (0 µM = 100) (CCRF-CEM cells; 4 µM, 72H): 0.147
effect on viability (CCRF-CEM cells; CTG): strong dose-dependent effect
viability at 0.007 µM (CCRF-CEM cells; Homo sapiens, 24 h, read-out: cell viability (0 µM = 100), CCRF-CEM, 0.007 µM, 24H): 98%
viability at 0.015 µM (CCRF-CEM cells; Homo sapiens, 24 h, read-out: cell viability (0 µM = 100), CCRF-CEM, 0.015 µM, 24H): 98%
viability at 0.031 µM (CCRF-CEM cells; Homo sapiens, 24 h, read-out: cell viability (0 µM = 100), CCRF-CEM, 0.031 µM, 24H): 98%
viability at 0.062 µM (CCRF-CEM cells; Homo sapiens, 24 h, read-out: cell viability (0 µM = 100), CCRF-CEM, 0.062 µM, 24H): 98%
viability at 0.25 µM (CCRF-CEM cells; Homo sapiens, 24 h, read-out: cell viability (0 µM = 100), CCRF-CEM, 0.25 µM, 24H): 68%
viability at 0.5 µM (CCRF-CEM cells; Homo sapiens, 24 h, read-out: cell viability (0 µM = 100), CCRF-CEM, 0.5 µM, 24H): 49%
viability at 1 µM (CCRF-CEM cells; Homo sapiens, 24 h, read-out: cell viability (0 µM = 100), CCRF-CEM, 1 µM, 24H): 27%
viability at 2 µM (CCRF-CEM cells; Homo sapiens, 24 h, read-out: cell viability (0 µM = 100), CCRF-CEM, 2 µM, 24H): 14%
viability at 0.007 µM (CCRF-CEM cells; Homo sapiens, 48 h, read-out: cell viability (0 µM = 100), CCRF-CEM, 0.007 µM, 48H): 94%
viability at 0.015 µM (CCRF-CEM cells; Homo sapiens, 48 h, read-out: cell viability (0 µM = 100), CCRF-CEM, 0.015 µM, 48H): 95%
viability at 0.031 µM (CCRF-CEM cells; Homo sapiens, 48 h, read-out: cell viability (0 µM = 100), CCRF-CEM, 0.031 µM, 48H): 87%
viability at 0.062 µM (CCRF-CEM cells; Homo sapiens, 48 h, read-out: cell viability (0 µM = 100), CCRF-CEM, 0.062 µM, 48H): 85%
viability at 0.125 µM (CCRF-CEM cells; Homo sapiens, 48 h, read-out: cell viability (0 µM = 100), CCRF-CEM, 0.125 µM, 48H): 67%
viability at 0.25 µM (CCRF-CEM cells; Homo sapiens, 48 h, read-out: cell viability (0 µM = 100), CCRF-CEM, 0.25 µM, 48H): 41%
viability at 0.5 µM (CCRF-CEM cells; Homo sapiens, 48 h, read-out: cell viability (0 µM = 100), CCRF-CEM, 0.5 µM, 48H): 17%
viability at 1 µM (CCRF-CEM cells; Homo sapiens, 48 h, read-out: cell viability (0 µM = 100), CCRF-CEM, 1 µM, 48H): 9%
viability at 2 µM (CCRF-CEM cells; Homo sapiens, 48 h, read-out: cell viability (0 µM = 100), CCRF-CEM, 2 µM, 48H): 4%
viability at 0.007 µM (CCRF-CEM cells; Homo sapiens, 72 h, read-out: cell viability (0 µM = 100), CCRF-CEM, 0.007 µM, 72H): 82%
viability at 0.015 µM (CCRF-CEM cells; Homo sapiens, 72 h, read-out: cell viability (0 µM = 100), CCRF-CEM, 0.015 µM, 72H): 78%
viability at 0.031 µM (CCRF-CEM cells; Homo sapiens, 72 h, read-out: cell viability (0 µM = 100), CCRF-CEM, 0.031 µM, 72H): 76%
viability at 0.062 µM (CCRF-CEM cells; Homo sapiens, 72 h, read-out: cell viability (0 µM = 100), CCRF-CEM, 0.062 µM, 72H): 67%
viability at 0.125 µM (CCRF-CEM cells; Homo sapiens, 72 h, read-out: cell viability (0 µM = 100), CCRF-CEM, 0.125 µM, 72H): 40%
viability at 0.25 µM (CCRF-CEM cells; Homo sapiens, 72 h, read-out: cell viability (0 µM = 100), CCRF-CEM, 0.25 µM, 72H): 21%
viability at 0.5 µM (CCRF-CEM cells; Homo sapiens, 72 h, read-out: cell viability (0 µM = 100), CCRF-CEM, 0.5 µM, 72H): 7%
viability at 1 µM (CCRF-CEM cells; Homo sapiens, 72 h, read-out: cell viability (0 µM = 100), CCRF-CEM, 1 µM, 72H): 3.38%
viability at 2 µM (CCRF-CEM cells; Homo sapiens, 72 h, read-out: cell viability (0 µM = 100), CCRF-CEM, 2 µM, 72H): 1%
viability at 4 µM (CCRF-CEM cells; Homo sapiens, 72 h, read-out: cell viability (0 µM = 100), CCRF-CEM, 4 µM, 72H): 0.214%
viability at 0.5 µM (CCRF-CEM cells; Homo sapiens, read-out: cell viability (Control = 100), CCRF-CEM, 0.5 µM, VEH): 52%
viability at 1 µM (CCRF-CEM cells; Homo sapiens, read-out: cell viability (Control = 100), CCRF-CEM, 1 µM, VEH): 37%
PI Negative (Figure S8b) (PBMCs; 0.5 µM): 87 (3×) and 88 and 86 (2×) and 81 and 79
PI Positive (Figure S8b) (PBMCs; 0.5 µM): 12 and 14 (2×) and 13 (3×) and 19 and 21
PI Negative (Figure S8b) (PBMCs; 1 µM): 86 (3×) and 88 and 87 (2×) and 81 and 79
PI Positive (Figure S8b) (PBMCs; 1 µM): 12 and 14 (3×) and 13 (2×) and 19 and 21
PI Negative (Figure S8b) (PBMCs; 2 µM): 86 (3×) and 88 and 85 and 81 and 79 and 87
PI Positive (Figure S8b) (PBMCs; 2 µM): 12 and 15 and 14 (3×) and 19 and 21 and 13
PI Negative (Figure S8b) (PBMCs; 4 µM): 87 (2×) and 88 and 85 and 86 and 80 and 79 and 84
PI Positive (Figure S8b) (PBMCs; 4 µM): 12 and 15 and 14 and 20 and 21 and 13 (2×) and 16
PI Negative (Figure S8b) (PBMCs; 8 µM): 86 and 88 and 84 (2×) and 80 and 77 and 85 and 83
PI Positive (Figure S8b) (PBMCs; 8 µM): 12 and 16 (2×) and 20 and 23 and 15 and 17 and 14
PI Negative (Figure S8b) (PBMCs; 16 µM): 86 and 88 and 84 (3×) and 80 and 74 and 81
PI Positive (Figure S8b) (PBMCs; 16 µM): 12 and 16 (3×) and 20 and 26 and 19 and 14
PI Negative (Figure S8b) (PBMCs; 32 µM): 82 and 84 and 79 and 81 and 80
PI Positive (Figure S8b) (PBMCs; 32 µM): 16 and 21 and 19 and 20 and 18
PBMC viability relative to 0 µM = 100 (Figure S8a) (PBMCs; PBMC 72H, 0.5 µM, rep1-5): 100 and 93 (2×) and 120
PBMC viability relative to 0 µM = 100 (Figure S8a) (PBMCs; PBMC 72H, 1 µM, rep1-5): 91 and 93 and 110 and 97
PBMC viability relative to 0 µM = 100 (Figure S8a) (PBMCs; PBMC 72H, 4 µM, rep1-5): 111 and 89 and 93 and 118 and 88
PBMC viability relative to 0 µM = 100 (Figure S8a) (PBMCs; PBMC 72H, 8 µM, rep1-5): 113 and 75 and 87 and 109 and 93
PBMC viability relative to 0 µM = 100 (Figure S8a) (PBMCs; PBMC 72H, 16 µM, rep1-5): 109 and 80 and 83 and 90
PBMC viability relative to 0 µM = 100 (Figure S8a) (PBMCs; PBMC 72H, 32 µM, rep1-5): 104 and 88 and 82 and 76 and 96
PBMC viability relative to 0 µM = 100 (Figure S8a) (PBMCs; PMBC 24H, 0.5 µM, rep1-4): 100 and 97 (2×)
PBMC viability relative to 0 µM = 100 (Figure S8a) (PBMCs; PMBC 24H, 1 µM, rep1-4): 94 and 95
PBMC viability relative to 0 µM = 100 (Figure S8a) (PBMCs; PMBC 24H, 2 µM, rep1-4): 97
PBMC viability relative to 0 µM = 100 (Figure S8a) (PBMCs; PMBC 24H, 4 µM, rep1-4): 97 and 96
PBMC viability relative to 0 µM = 100 (Figure S8a) (PBMCs; PMBC 24H, 8 µM, rep1-4): 105
PBMC viability relative to 0 µM = 100 (Figure S8a) (PBMCs; PMBC 24H, 32 µM, rep1-4): 104
effect on healthy PBMCs (PBMCs; up to a maximum dose tested of 32 µM): no effect
viability at 72 h, 1 µM ([1]; PBMC 72H, 1 µM, rep1-5): 103%
viability at 24 h, 0.5 µM ([1]; PMBC 24H, 0.5 µM, rep1-4): 99%
viability at 24 h, 1 µM ([1]; PMBC 24H, 1 µM, rep1-4): 102%
viability at 24 h, 2 µM ([1]; PMBC 24H, 2 µM, rep1-4): 98%
viability at 24 h, 4 µM ([1]; PMBC 24H, 4 µM, rep1-4): 101%
viability at 24 h, 8 µM ([1]; PMBC 24H, 8 µM, rep1-4): 102%
viability at 24 h, 16 µM ([1]; PMBC 24H, 16 µM, rep1-4): 102%
viability at 24 h, 32 µM ([1]; PMBC 24H, 32 µM, rep1-4): 101%

Source: paper PMC11696576, “Next generation thiazolyl ketone inhibitors of cytosolic phospholipase A2 α for targeted cancer therapy” (Nature Communications, 2025)
